PMC9396645 (Frontiers in Chemistry, 2022)

Legend:
[1] = tested on: C4-2 tumor bearing BALB/c nu/nu mice; test: Small-animal PET imaging in C4-2 tumor bearing mice; type: in vivo, mouse; details: mean SUV from PET, 2 h p.i.
Text: (§1) Athymic male nude mice (BALB/c nu/nu) were purchased from Charles River at 4‒5 weeks of age (19–23 g). The mice were kept under pathogen-free conditions for 1 week prior to the study. The mice had free access to water and food and were housed with a 12-h/12-h light/dark cycle. The xenografts required for positron emission tomography (PET) imaging and biodistribution studies were obtained by inoculation of 5 × 10^7 C4-2 cells in 50% Matrigel in Opti-MEM I (1 ×) medium. For this purpose, the mice were anesthetized with 2% sevoflurane, and inoculation was performed subcutaneously on the right trunk. When the size of the tumor was approximately 1 cm^3, the studies were performed.
For small-animal PET imaging, the different ^68Ga-labeled PSMA ligands (0.5 nmol, 20 MBq in approximately 100 µL 0.9% saline) were injected into C4-2 tumor bearing mice. The dynamic PET was recorded in a small animal PET scanner (Siemens Inveon D-PET). The standardized uptake values (SUVs) were obtained from conventional (non-dynamic) PET images. The formula for the SUV was SUV=activity in ROI (Bq/ml) × animal weight (g)/injected dose(Bq)
Manual delineation of the respective appropriate whole organ (heart, kidneys, bladder, tumor, with an approximate volume of 100–500 µL) yielded the volumes of interest (VOIs). For this purpose, whole organs or parts of the organ/tissue (liver and muscle) were used. The images were reconstructed based on the procedure: OSEM 3D/SP MAP with 16 subsets, two iterations, and an image x-y size: 256, image z size: 161. The data were not modified with a post-processing filter. Analysis of the images and time-activity curves (TACs) was conducted on the Inveon™ Acquisition Workplace (IAW) from Siemens IRW 4.1. […] […] The mean SUVs were plotted over time in order to compare the different radiotracers.

C4-2 cells = test: Internalization efficiency / specific cell uptake in C4-2 cells; type: cell-based, human; details: ^68Ga-labeled compounds 30 nM, 45 min, 37°C, specificity by 2-PMPA 500 μM, mean ± SD (n = 3)
Procedure: The specific internalization ratio was determinated in 24-well plates. The plates were previously coated with 0.1% poly-L-lysine in PBS for 20 min and washed with PBS once. C4-2 cells (10^5 cells per analysis) were added to each well and equilibrated overnight. The cells were incubated for 45 min with 250 µL of a 30 nM solution of the ^68Ga-labeled compounds either in a water bath at 37°C or on ice. The PSMA-receptor-blocking agent 2-(phosphonomethyl)pentanedioic acid (2-PMPA; 500 μM; Axxora) was used to verify the specificity of the cellular uptake of the novel compounds. The cells were washed thrice (using 1 ml of ice-cold PBS), followed by an incubation with 0.5 ml of a glycine solution (50 mM in HCl at a pH of 2.8) for 5 min, washed once with 1 ml of ice-cold PBS, and finally lysed with 0.5 ml of 0.3 M NaOH. The lysate was collected, and the radioactivity was measured in a gamma-counter. Triplicate measurements were performed for all experiments.

[2] = tested on: C4-2 tumor bearing BALB/c nu/nu mice; test: Biodistribution (organ distribution) in C4-2 tumor-bearing mice; type: in vivo, mouse; details: tumor bearing mice, n = 3
Text: as §1
Based on the results of the PET imaging, ^68Ga-CA028 and ^68Ga-CA030, the most promising compounds, were chosen for biodistribution studies in C4-2 tumor-bearing mice. The labeled compound (0.05 nmol, 20 MBq) was administered to the mice via tail vein injection. Animals were sacrificed and organs were harvested at the following time points: 20 min, 1, 2, and 4 h p.i. The organs were dissected and weighed, the activity was measured with a γ-counter, and the % ID/g was calculated.

prostate cancer patients = test: PSMA-PET/CT of prostate cancer patients; type: in vivo, human; details: patient PET/CT, 20 nmol
Procedure: Diagnostic PSMA-PET/computed tomography (CT) examinations were performed 1 and 3 h after antecubital injection of 339 MBq/20 nmol ^68Ga-CA028 or 295 MBq/20 nmol ^68Ga-CA030 per patient, respectively. The method for assessing the biodistribution was performed as previously described by Afshar-Oromieh et al. ([Afshar-Oromieh et al., 2015b]). Applying the clinical standard software Syngo (Siemens), which was used to define the VOIs in the PET images, the activity distributions of the source organs was determined. This reference ([Afshar-Oromieh et al., 2015b]) was also used as a standard of reference for ^68Ga-PSMA-617 (Table 3).

In the case of `O=C([O-])CN1CCN(CC(=O)[O-])CCN(C(CCC(=O)NCc2ccc(NC(=S)NCC3CCC(C(=O)NC(Cc4ccc5ccccc5c4)C(=O)NCCCCC(NC(=O)NC(CCC(=O)O)C(=O)O)C(=O)O)CC3)cc2)C(=O)O)CCN(CC(=O)[O-])CC1.[68Ga+3]` (centres unmarked) [^68Ga-CA029], the tumor-to-kidney ratio [1] is reported as 0.52 and the “Specific lysate (internalization)” value (C4-2 cells) is reported as 44.3 ± 3.9 %IA/10^6 cells.
`O=C([O-])CN1CCN(CC(=O)[O-])CCN(CC(=O)O)C(Cc2ccc(NC(=S)NCC3CCC(C(=O)NC(Cc4ccc5ccccc5c4)C(=O)NCCCCC(NC(=O)NC(CCC(=O)O)C(=O)O)C(=O)O)CC3)cc2)CN(CC(=O)[O-])CC1.[68Ga+3]` (centres unmarked) [^68Ga-CA030] was tested, and the tumor-to-kidney ratio [1] was 0.33, the “Specific lysate (internalization)” value (C4-2 cells) was 53.8 ± 5.4 %IA/10^6 cells and the “Organ distribution Blood” value ([2]; 20 min) was 4.33 ± 0.51 % ID/g. The “Organ distribution Brain” value ([2]; 20 min) was 0.08 ± 0.01 % ID/g, the “Organ distribution Heart” value ([2]; 20 min) was 1.29 ± 0.30 % ID/g and the “Organ distribution Kidneys” value ([2]; 20 min) was 63.89 ± 5.72 % ID/g. For the same molecule, the “Organ distribution Liver” value ([2]; 20 min) was 1.04 ± 0.18 % ID/g, the “Organ distribution Lung” value ([2]; 20 min) was 2.63 ± 0.89 % ID/g and the “Organ distribution Muscle” value ([2]; 20 min) was 1.39 ± 1.30 % ID/g. For the same molecule, the “Organ distribution Small intestine” value ([2]; 20 min) was 1.00 ± 0.38 % ID/g, the “Organ distribution Spleen” value ([2]; 20 min) was 8.37 ± 0.47 % ID/g and the “Organ distribution Tumor” value ([2]; 20 min) was 5.17 ± 1.48 % ID/g. For the same molecule, the “Organ distribution Blood” value ([2]; 1 h) was 3.59 ± 1.52 % ID/g, the “Organ distribution Brain” value ([2]; 1 h) was 0.08 ± 0.02 % ID/g and the “Organ distribution Heart” value ([2]; 1 h) was 1.03 ± 0.36 % ID/g. For the same molecule, the “Organ distribution Kidneys” value ([2]; 1 h) was 46.39 ± 23.44 % ID/g, the “Organ distribution Liver” value ([2]; 1 h) was 1.52 ± 0.61 % ID/g and the “Organ distribution Lung” value ([2]; 1 h) was 2.74 ± 0.72 % ID/g. For the same molecule, the “Organ distribution Muscle” value ([2]; 1 h) was 0.63 ± 0.21 % ID/g, the “Organ distribution Small intestine” value ([2]; 1 h) was 0.92 ± 0.37 % ID/g and the “Organ distribution Spleen” value ([2]; 1 h) was 2.86 ± 1.86 % ID/g. The “Organ distribution Tumor” value ([2]; 1 h) was 5.36 ± 2.21 % ID/g, the “Organ distribution Blood” value ([2]; 2 h) was 1.42 ± 0.61 % ID/g and the “Organ distribution Brain” value ([2]; 2 h) was 0.04 ± 0.02 % ID/g. For the same molecule, the “Organ distribution Heart” value ([2]; 2 h) was 0.40 ± 0.09 % ID/g, the “Organ distribution Kidneys” value ([2]; 2 h) was 20.19 ± 7.92 % ID/g and the “Organ distribution Liver” value ([2]; 2 h) was 0.81 ± 0.15 % ID/g. For the same molecule, the “Organ distribution Lung” value ([2]; 2 h) was 1.08 ± 0.42 % ID/g, the “Organ distribution Muscle” value ([2]; 2 h) was 0.28 ± 0.03 % ID/g and the “Organ distribution Small intestine” value ([2]; 2 h) was 0.75 ± 0.06 % ID/g. The “Organ distribution Spleen” value ([2]; 2 h) was 1.39 ± 0.47 % ID/g, the “Organ distribution Tumor” value ([2]; 2 h) was 4.31 ± 0.30 % ID/g and the “Organ distribution Blood” value ([2]; 4 h) was 0.39 ± 0.14 % ID/g. For the same molecule, the “Organ distribution Brain” value ([2]; 4 h) was 0.01 ± 0.00 % ID/g, the “Organ distribution Heart” value ([2]; 4 h) was 0.16 ± 0.05 % ID/g and the “Organ distribution Kidneys” value ([2]; 4 h) was 6.17 ± 0.82 % ID/g. The “Organ distribution Liver” value ([2]; 4 h) was 0.50 ± 0.14 % ID/g, the “Organ distribution Lung” value ([2]; 4 h) was 0.34 ± 0.10 % ID/g and the “Organ distribution Muscle” value ([2]; 4 h) was 0.17 ± 0.02 % ID/g. For the same molecule, the “Organ distribution Small intestine” value ([2]; 4 h) was 0.21 ± 0.09 % ID/g, the “Organ distribution Spleen” value ([2]; 4 h) was 0.48 ± 0.09 % ID/g and the “Organ distribution Tumor” value ([2]; 4 h) was 2.69 ± 0.88 % ID/g. The “SUV mean Bone metastasis” value (prostate cancer patients; first listed bone metastasis, 1 h p.i.) was 27.2, the “SUV mean Bone metastasis” value (prostate cancer patients; first listed bone metastasis, 3 h p.i.) was 37.7 and the “SUV mean Blood pool, mediastinal” value (prostate cancer patients; 1 h p.i.) was 5.6. For the same molecule, the “SUV mean Colon” value (prostate cancer patients; 1 h p.i.) was 4.9, the “SUV mean Gluteal muscle” value (prostate cancer patients; 1 h p.i.) was 0.8 and the “SUV mean Kidneys” value (prostate cancer patients; 1 h p.i.) was 13.4. The “SUV mean Lacrimal gland” value (prostate cancer patients; 1 h p.i.) was 7.1, the “SUV mean Liver” value (prostate cancer patients; 1 h p.i.) was 5.8 and the “SUV mean Nasal mucosa” value (prostate cancer patients; 1 h p.i.) was 3.3. The “SUV mean Parotid gland” value (prostate cancer patients; 1 h p.i.) was 6.1, the “SUV mean Proximal small intestine” value (prostate cancer patients; 1 h p.i.) was 4.1 and the “SUV mean Spleen” value (prostate cancer patients; 1 h p.i.) was 7.2. The “SUV mean Sublingual gland” value (prostate cancer patients; 1 h p.i.) was 4.1, the “SUV mean Submandibular gland” value (prostate cancer patients; 1 h p.i.) was 8.7 and the “SUV mean Blood pool, mediastinal” value (prostate cancer patients; 3 h p.i.) was 4.5. The “SUV mean Colon” value (prostate cancer patients; 3 h p.i.) was 4.7, the “SUV mean Gluteal muscle” value (prostate cancer patients; 3 h p.i.) was 0.7 and the “SUV mean Kidneys” value (prostate cancer patients; 3 h p.i.) was 16.5. For the same molecule, the “SUV mean Lacrimal gland” value (prostate cancer patients; 3 h p.i.) was 9.0, the “SUV mean Liver” value (prostate cancer patients; 3 h p.i.) was 5.9 and the “SUV mean Nasal mucosa” value (prostate cancer patients; 3 h p.i.) was 3.8. For the same molecule, the “SUV mean Parotid gland” value (prostate cancer patients; 3 h p.i.) was 6.7, the “SUV mean Proximal small intestine” value (prostate cancer patients; 3 h p.i.) was 5.0 and the “SUV mean Spleen” value (prostate cancer patients; 3 h p.i.) was 6.1. The “SUV mean Sublingual gland” value (prostate cancer patients; 3 h p.i.) was 4.9, the “SUV mean Submandibular gland” value (prostate cancer patients; 3 h p.i.) was 11.3 and the “SUV mean Bone metastasis” value (prostate cancer patients; second listed bone metastasis, 1 h p.i.) was 30.9. The “SUV mean Bone metastasis” value (prostate cancer patients; second listed bone metastasis, 3 h p.i.) was 32.6, the “SUV mean Bone metastasis” value (prostate cancer patients; third listed bone metastasis, 1 h p.i.) was 31.0 and the “SUV mean Bone metastasis” value (prostate cancer patients; third listed bone metastasis, 3 h p.i.) was 33.1.
